In assay [1] the target is T1, hSERT (Homo sapiens, UniProt P31645). The experiment in a line: Inhibition of [^125I]RTI-55 binding to hSERT.
For assay [2], the target named is T2, hNET (Homo sapiens, UniProt P23975). Description: biochemical. The class given is binding.
The target of assay [3] is T3, 5-HT2C receptor (Homo sapiens, UniProt P28335).
T3 sequence (P28335 33-458): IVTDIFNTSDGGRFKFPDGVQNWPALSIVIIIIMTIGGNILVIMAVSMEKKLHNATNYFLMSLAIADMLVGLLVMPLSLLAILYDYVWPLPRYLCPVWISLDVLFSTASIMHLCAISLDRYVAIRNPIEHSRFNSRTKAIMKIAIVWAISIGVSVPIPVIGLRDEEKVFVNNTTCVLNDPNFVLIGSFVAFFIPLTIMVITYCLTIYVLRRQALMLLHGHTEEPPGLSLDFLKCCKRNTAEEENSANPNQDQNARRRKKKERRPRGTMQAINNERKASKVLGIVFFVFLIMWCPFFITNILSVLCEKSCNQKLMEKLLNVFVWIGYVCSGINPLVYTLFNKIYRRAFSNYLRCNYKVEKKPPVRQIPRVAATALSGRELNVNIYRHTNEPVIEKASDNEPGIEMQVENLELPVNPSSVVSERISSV
The experiment in a line: cell-based.

The target of assay [4] is T1, hSERT. Description: Release of preloaded [^3H]5-HT from HEK-hSERT cells. The class given is cell-based. The conditions noted are these: for EC50: read-out: Drug-induced release of [^3H]neurotransmitter EC50, hSERT [^3H]5-HT, mean ± sem, HEK-hSERT; for % maximum release, hSERT [^3H]5-HT: relative to maximum release induced by METH (0.3–1 mM).
The target of assay [5] is T4, human 5-HT1A receptor (Homo sapiens, UniProt P08908).
T4 sequence (P08908 1-422): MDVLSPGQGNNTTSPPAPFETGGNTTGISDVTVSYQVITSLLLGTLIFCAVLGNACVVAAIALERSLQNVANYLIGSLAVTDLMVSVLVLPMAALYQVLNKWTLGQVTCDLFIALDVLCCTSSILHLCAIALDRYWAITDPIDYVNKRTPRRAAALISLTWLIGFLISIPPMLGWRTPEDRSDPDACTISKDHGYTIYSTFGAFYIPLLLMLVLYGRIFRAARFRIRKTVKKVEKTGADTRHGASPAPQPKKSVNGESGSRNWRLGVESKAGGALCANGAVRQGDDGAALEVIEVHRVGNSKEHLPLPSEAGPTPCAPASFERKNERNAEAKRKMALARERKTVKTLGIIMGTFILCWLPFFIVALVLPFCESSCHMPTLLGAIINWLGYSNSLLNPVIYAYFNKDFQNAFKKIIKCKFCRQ
The experiment in a line: 5-HT1A receptor [^35S]GTPγS binding stimulation. The class given is biochemical.

Assay [6] has as its target T5, hDAT (Homo sapiens, UniProt Q01959). Description: Release of preloaded [^3H]DA from HEK-hDAT cells. The conditions noted are these: for EC50: read-out: Drug-induced release of [^3H]neurotransmitter EC50, hDAT [^3H]DA, mean ± sem, HEK-hDAT; for % maximum release, hDAT [^3H]DA: relative to maximum release induced by METH (1–10 μM). The class given is cell-based.
The target in assay [7] is T6, 5-HT2A receptor (Homo sapiens, UniProt P28223). Description: cell-based. The class given is cell-based.
T6 sequence (P28223 whole entry): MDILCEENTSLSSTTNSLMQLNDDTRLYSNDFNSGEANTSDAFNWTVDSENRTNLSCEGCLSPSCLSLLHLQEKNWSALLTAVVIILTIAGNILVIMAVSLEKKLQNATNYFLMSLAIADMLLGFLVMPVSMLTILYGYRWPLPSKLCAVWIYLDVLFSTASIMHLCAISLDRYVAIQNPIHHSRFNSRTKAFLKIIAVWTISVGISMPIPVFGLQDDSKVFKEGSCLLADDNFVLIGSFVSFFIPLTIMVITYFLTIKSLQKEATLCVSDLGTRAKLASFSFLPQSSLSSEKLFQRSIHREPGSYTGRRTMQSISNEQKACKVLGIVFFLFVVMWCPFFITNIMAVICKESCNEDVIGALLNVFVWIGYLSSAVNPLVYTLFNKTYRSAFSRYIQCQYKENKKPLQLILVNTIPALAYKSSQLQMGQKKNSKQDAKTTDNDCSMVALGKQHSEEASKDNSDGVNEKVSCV
For assay [8], the target named is T4, human 5-HT1A receptor. Description: 5-HT1A receptor [^3H]8-OH-DPAT radioligand binding. The conditions noted are these: read-out: Inhibition of radioligand binding Ki, 5-HT1A [^3H]8OH-DPAT; mean ± sem; recombinant human 5-HT1A in HEK cells; agonist radioligand.
The target of assay [9] is T6, 5-HT2A receptor. The experiment in a line: biochemical. The class given is binding. The conditions noted are these: ratio of Ki values.
The target in assay [10] is T5, hDAT. Description: Inhibition of [^125I]RTI-55 binding to hDAT. The conditions noted are these: read-out: Inhibition of [^125I]RTI-55 binding Ki, hDAT; mean ± sem; HEK-hDAT.
The target in assay [11] is T2, hNET. The experiment in a line: Release of preloaded [^3H]NE from HEK-hNET cells. Format: cell-based. The conditions noted are these: for EC50: read-out: Drug-induced release of [^3H]neurotransmitter EC50, hNET [^3H]NE, mean ± sem, HEK-hNET; for % maximum release, hNET [^3H]NE: relative to maximum release induced by METH (0.3–1 μM).
Assay [12] has as its target 5-HT2B receptor (Homo sapiens, UniProt P41595). The experiment in a line: 5-HT2B receptor inositol monophosphate. Format: cell-based. The conditions noted are these: for % maximum stimulation, 5-HT2B stimulation of IP-1 formation: normalized to the maximal stimulation by 5-HT.
Assay [13] concerns the target T1, hSERT. The experiment in a line: Inhibition of [^3H]5-HT uptake by HEK-hSERT cells. The class given is cell-based.
Assay [14] concerns the target T2, hNET. Description: cell-based.
Setting [15] is: read-out: Inhibition of [^125I]RTI-55 binding Ki, hSERT, mean ± sem, HEK-hSERT.
The mark [16] stands for this setting: read-out: Inhibition of [^125I]RTI-55 binding Ki, hNET, mean ± sem, HEK-hNET.
Where [17] appears, read: normalized to the maximal stimulation by 5-HT.

This note sets out measurements from publication PMC6298744 (Biochemical pharmacology, 2018).

Structures are written as SMILES. Where two headings read alike, the source gives them in different places.

The Ki is the dissociation constant of the complex between target and ligand, obtained from inhibition or displacement. One may read the EC50 as the concentration needed to bring the measured effect to its halfway point. By IC50 is commonly meant the midpoint of a concentration-inhibition curve. A low value points to inhibition by little substance.

T1 sequence (P31645 whole entry): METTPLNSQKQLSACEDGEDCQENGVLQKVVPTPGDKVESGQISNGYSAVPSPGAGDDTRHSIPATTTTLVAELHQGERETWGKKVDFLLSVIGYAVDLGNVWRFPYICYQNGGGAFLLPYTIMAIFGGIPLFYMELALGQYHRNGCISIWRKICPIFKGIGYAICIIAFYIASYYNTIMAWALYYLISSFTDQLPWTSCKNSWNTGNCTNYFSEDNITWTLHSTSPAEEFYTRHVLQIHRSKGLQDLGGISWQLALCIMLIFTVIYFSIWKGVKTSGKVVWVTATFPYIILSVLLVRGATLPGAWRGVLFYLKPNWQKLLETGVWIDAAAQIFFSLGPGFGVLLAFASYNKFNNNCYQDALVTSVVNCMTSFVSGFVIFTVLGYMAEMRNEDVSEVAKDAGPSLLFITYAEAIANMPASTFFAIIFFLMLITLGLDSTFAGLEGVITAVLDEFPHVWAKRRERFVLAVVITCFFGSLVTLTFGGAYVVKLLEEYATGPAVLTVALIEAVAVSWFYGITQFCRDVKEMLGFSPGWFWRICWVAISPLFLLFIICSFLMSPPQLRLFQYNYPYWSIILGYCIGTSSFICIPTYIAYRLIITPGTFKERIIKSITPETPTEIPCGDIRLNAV
T2 sequence (P23975 whole entry): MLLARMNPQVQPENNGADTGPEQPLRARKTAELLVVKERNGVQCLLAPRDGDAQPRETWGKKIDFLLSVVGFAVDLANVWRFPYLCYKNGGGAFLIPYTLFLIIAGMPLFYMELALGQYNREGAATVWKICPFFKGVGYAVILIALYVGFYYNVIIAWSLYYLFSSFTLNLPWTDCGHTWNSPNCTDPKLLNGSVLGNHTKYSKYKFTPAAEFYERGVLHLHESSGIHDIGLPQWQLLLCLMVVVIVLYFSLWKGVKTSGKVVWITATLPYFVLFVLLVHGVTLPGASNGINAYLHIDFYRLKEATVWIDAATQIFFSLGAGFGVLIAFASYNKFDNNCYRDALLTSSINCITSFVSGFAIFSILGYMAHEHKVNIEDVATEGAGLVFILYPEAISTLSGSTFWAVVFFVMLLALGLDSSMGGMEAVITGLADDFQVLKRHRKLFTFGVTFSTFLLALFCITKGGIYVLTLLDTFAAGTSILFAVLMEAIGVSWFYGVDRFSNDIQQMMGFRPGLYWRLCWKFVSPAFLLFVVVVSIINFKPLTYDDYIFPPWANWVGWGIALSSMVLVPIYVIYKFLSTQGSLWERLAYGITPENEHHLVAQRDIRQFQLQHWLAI
T5 sequence (Q01959 whole entry): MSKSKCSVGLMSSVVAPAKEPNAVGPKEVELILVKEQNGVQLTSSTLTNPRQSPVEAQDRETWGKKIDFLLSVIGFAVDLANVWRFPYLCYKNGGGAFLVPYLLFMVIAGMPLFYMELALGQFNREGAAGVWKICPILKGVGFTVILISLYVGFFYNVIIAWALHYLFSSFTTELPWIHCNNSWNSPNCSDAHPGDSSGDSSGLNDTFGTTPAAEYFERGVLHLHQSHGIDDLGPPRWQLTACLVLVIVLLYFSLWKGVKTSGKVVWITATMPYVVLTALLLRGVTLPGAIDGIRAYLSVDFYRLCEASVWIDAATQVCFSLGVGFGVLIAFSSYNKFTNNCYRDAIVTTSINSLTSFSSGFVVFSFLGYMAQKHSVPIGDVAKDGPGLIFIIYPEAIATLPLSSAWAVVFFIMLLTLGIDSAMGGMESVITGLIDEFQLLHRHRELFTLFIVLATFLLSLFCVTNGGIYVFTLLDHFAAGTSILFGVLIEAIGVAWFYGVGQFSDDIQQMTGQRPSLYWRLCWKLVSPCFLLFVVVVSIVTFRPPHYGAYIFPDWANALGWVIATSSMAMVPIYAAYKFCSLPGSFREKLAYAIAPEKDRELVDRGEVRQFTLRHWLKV
5-HT2B receptor, sequence (P41595 whole entry): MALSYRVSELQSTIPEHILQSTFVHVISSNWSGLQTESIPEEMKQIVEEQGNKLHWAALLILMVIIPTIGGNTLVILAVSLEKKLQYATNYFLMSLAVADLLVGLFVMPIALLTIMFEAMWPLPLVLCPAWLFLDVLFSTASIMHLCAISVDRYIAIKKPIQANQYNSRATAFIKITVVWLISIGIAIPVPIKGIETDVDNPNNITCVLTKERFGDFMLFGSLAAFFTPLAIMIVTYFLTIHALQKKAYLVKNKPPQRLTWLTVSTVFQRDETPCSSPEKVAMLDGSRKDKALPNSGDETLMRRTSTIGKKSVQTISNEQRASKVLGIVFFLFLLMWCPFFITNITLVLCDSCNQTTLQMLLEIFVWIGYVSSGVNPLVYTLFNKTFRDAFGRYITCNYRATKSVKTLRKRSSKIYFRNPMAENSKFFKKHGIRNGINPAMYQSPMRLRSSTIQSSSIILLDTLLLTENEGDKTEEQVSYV

`COc1cc([N+](=O)[O-])c(OC)cc1CCNCc1ccccc1OC` [25N-NBOMe]: the Ki in assay [1] (setting [15]) came out at 5.81 ± 0.9 µM; in assay [2] (setting [16]) it was 11.3 ± 3.5 µM; in assay [8], 2260 ± 230 nM; in [10], 37.9 ± 4.6 µM. Further, the “% maximum stimulation, 5-HT2C stimulation of IP-1 formation” value in assay [3] (setting [17]) is on record as 99.4 ± 0.4%. Moreover, the EC50 in assay [3] (read-out: EC50, 5-HT2C stimulation of IP-1 formation, mean ± sem) was 1.32 ± 0.27 nM; in assay [4], more than 100 µM; in assay [5] (read-out: EC50, 5-HT1A stimulation of [^35S]GTPγS binding, mean ± sem) it was 4.8 ± 1.8 µM; in [6] it was more than 100 µM; in [7] (read-out: EC50, 5-HT2A stimulation of IP-1 formation, mean ± sem), 0.51 ± 0.19 nM; in assay [11], more than 38 µM. Further, the 50% effective concentration (EC50) in [12] (read-out: EC50, 5-HT2B stimulation of IP-1 formation, mean ± sem) worked out at 47 ± 11 nM. Moreover, the “% maximum release, hSERT [^3H]5-HT” value in assay [4] was −0.25 ± 0.54%. Also, the “% maximum stimulation, 5-HT1A stimulation of [^35S]GTPγS binding” value in assay [5] (setting [17]) came out at 35.6 ± 6.6%. The “% maximum release, hDAT [^3H]DA” value in [6] was −0.89 ± 0.91%. Moreover, the “% maximum stimulation, 5-HT2A stimulation of IP-1 formation” value in assay [7] (setting [17]) is listed as 87.9 ± 3.4%. The “Selectivity (functional ratios) 5-HT2A: 5-HT1A” value in assay [7] (ratio of EC50 values) is reported as 9400. Further, the “Selectivity (functional ratios) 5-HT2A: 5-HT2B” value in assay [7] (ratio of EC50 values) is 92. Besides, in assay [7] (ratio of EC50 values), the “Selectivity (functional ratios) 5-HT2A: 5-HT2C” value is 2.6. For the same compound, the “Selectivity (binding ratios) 5-HT2A : 5-HT1A” value in assay [9] is reported as 15700. Also, the “Selectivity (binding ratios) 5-HT2A : 5-HT2B” value in assay [9] is reported as 60. The “Selectivity (binding ratios) 5-HT2A : 5-HT2C” value in assay [9] came out at 7.4. In addition, the “% maximum release, hNET [^3H]NE” value in assay [11] is listed as 25 ± 15%. The “% maximum stimulation, 5-HT2B stimulation of IP-1 formation” value in [12] was 57.6 ± 8.6%.

`CCN(CC)C(=O)[C@@H]1C=C2c3cccc4[nH]cc(c34)C[C@H]2N(C)C1` [LSD, (+)lysergic acid diethylamide, reference compound]: the Ki in assay [1] (setting [15]) is 62.9 ± 5 µM; in assay [2] (setting [16]) it was 76.9 ± 8.5 µM; in assay [10] it was more than 100 µM. Further, the EC50 in assay [4] is more than 100 µM; in assay [6] it was more than 54 µM; in assay [11], more than 91 µM. In addition, the “% maximum release, hSERT [^3H]5-HT” value in assay [4] is recorded as −0.59 ± 0.55%. Further, the “% maximum release, hDAT [^3H]DA” value in assay [6] was determined as 7.4 ± 4.7%. In addition, in [7], the “% maximum stimulation, 5-HT2A stimulation of IP-1 formation” value is 0.706 ± 0.065 (3) 64.5 ± 6.3%. Besides, in assay [11], the “% maximum release, hNET [^3H]NE” value stood at 35.7 ± 4.2%. Moreover, the “% maximum stimulation, 5-HT2B stimulation of IP-1 formation” value in [12] turned out to be 23.3 ± 4.9%.

For the compound `CN[C@@H](C)Cc1ccccc1` [METH, (S+)methamphetamine, reference compound], in [4], the EC50 stood at 27.5 ± 7 µM and the “% maximum release, hSERT [^3H]5-HT” value is 104.9 ± 6.8%. In addition, in [6], the concentration for a half-maximal effect (EC50) was 0.43 ± 0.15 µM and the “% maximum release, hDAT [^3H]DA” value came out at 104.1 ± 1.3%. In [11], the EC50 came out at 0.152 ± 0.056 µM and the “% maximum release, hNET [^3H]NE” value stood at 106.7 ± 3.3%.

`OC1(c2ccc(Cl)cc2)c2ccccc2C2=NCCN21` (stereo not drawn) [Mazindol, reference compound]: the inhibitory constant (Ki) in [1] was determined as 0.127 ± 0.039 µM; in [2], 0.0116 ± 0.0035 µM. In addition, the IC50 is 69 ± 12 nM in [13] and 1.1 ± 0.3 nM in [14].
